≈ marks a conversion by molar mass, not a printed value.

Common to all, as to type: cell-based
The subject of assay [1] is Morganella morganii SBK3 (wild). The method in brief: (§1)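 Growth promotion under iron limitation in indicator strains blocked in siderophore or aromatic biosynthesis, or lacking siderophore receptors or iron-transport components; Proteus mirabilis 12 is wild type. Controls: ferrioxamine E for Pseudomonas, ferrioxamine G and enterobactin for Salmonella, ferrichrome for E. coli. + and (+) denote non-specific growth promotion.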

The test system of assay [2] is Proteus mirabilis 12 (wild). The method in brief:
as §1

Assay [3] deals with Pseudomonas aeruginosa K 407. The conditions noted are these: Pseudomonas aeruginosa K407. The method in brief:
as §1

Assay [4] deals with Salmonella typhimurium TA 2700. The method in brief:
as §1

Assay [5] has as its system Salmonella typhimurium enb-7. The method in brief: as §1
For assay [6], the system named is Klebsiella pneumoniae KN 4401. To be noted: Klebsiella KN 4401. The method in brief:
as §1

Assay [7] relates to Proteus vulgaris 718 (wild). The essentials: as §1
The test system of assay [8] is Yersinia enterocolitica WAH. The conditions noted are these: Y. enterocol. WAH.
Assay [9] concerns E. coli AB 2847. The essentials:
as §1

The subject of assay [10] is Pseudomonas aeruginosa 690. The method in brief: as §1
For assay [11], the system named is Pseudomonas aeruginosa PAO 6609. The method in brief: as §1
In assay [12] the test system is Pseudomonas aeruginosa NPS1 (plasmid-coded β-lactamase). To be noted: concentration 100 μg/ml; P. aeruginosa NPS 1.
The test system of assay [13] is Pseudomonas aeruginosa NCTC 10662. The assay is described as follows: Agar diffusion test. To be noted: concentration 100 μg/ml; P. aeruginosa NCTC 10662. On the technique in general: In agar diffusion tests the substance spreads into inoculated agar from a disc or well.
Assay [14] concerns Pseudomonas aeruginosa SG 137 (carbenicillin-resistant). The assay is described as follows: Agar diffusion test. The conditions noted are these: concentration 100 μg/ml; P. aeruginosa SG 137.
The subject of assay [15] is Salmonella gallinarum ATCC 9184. To be noted: concentration 100 μg/ml; Salmonella galinarum ATCC 9184.
The subject of assay [16] is E. coli DC2. The assay is described as follows: microbe, parasite or virus in culture. The essentials: (§2)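 Broth microdilution MIC determination; paired strains (Pseudomonas KW 799 WT vs /61, E. coli DC0 vs DC2) used to assess the effect of improved penetration capacity on compound efficacy.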
Assay [17] concerns E. coli mutant KB5 ompC−. The source says:
(§3) The efficacy against β-lactamase formers and against multi-resistant germs is therefore due to a new type of mechanism for overcoming the penetration resistance, by means of which the ratio of active ingredient to enzyme in the bacterial cell is influenced so that not all antibiotic molecules are inactivated before they reach their target.

The test system of assay [18] is E. coli mutant KB4 ompF−.
From the text: as §3

In assay [19] the test system is Pseudomonas aeruginosa KW 799/61 (penetration mutant). To be noted: concentration 100 μg/ml; P. aeruginosa KW799/61.
Assay [20] relates to E. coli DC0 (wild type). Briefly: Agar diffusion test. To be noted: concentration 100 μg/ml.
The subject of assay [21] is Pseudomonas aeruginosa NCTC 10701. The assay is described as follows: Microdilution test (MIC). To be noted: P. aeruginosa NCTC 10701. The method, then:
(§4) The minimum inhibiting concentrations (MICs) were determined for the following bacterial strains: Pseudomonas aeruginosa NCTC 10701, NCTC 10662, SG 137, ATCC 27853, KW 799 WT and KW 799/61, E. coli DCO, DC2 and ATCC 25922, Serratia marcescens SG 621; Salmonella gallinarum ATCC 9184, Klebsiella pneumoniae ATCC 10031 and SG 117.
Background: Broth dilution looks for growth in wells or tubes with falling amounts of substance.

The subject of assay [22] is Pseudomonas aeruginosa SG 137. The assay is described as follows: Microdilution test (MIC). To be noted: P. aeruginosa SG 137. The method, then:
as §4

Assay [23] relates to Klebsiella pneumoniae SG 117. Briefly: Microdilution test (MIC). The method, then:
as §4

In assay [24] the test system is Serratia marcescens SG 621. Briefly: Microdilution test (MIC). The method, then:
as §4

Assay [25] deals with Pseudomonas aeruginosa ATCC 27853. Briefly: Microdilution test (MIC). The conditions noted are these: P. aeruginosa ATCC 27853. The method, then:
as §4

In assay [26] the test system is E. coli ATCC 25922. Briefly: Microdilution test (MIC). The method, then: as §4
For assay [27], the system named is Klebsiella pneumoniae ATCC 10031. The assay is described as follows: Microdilution test (MIC). The method, then:
as §4

The subject of assay [28] is Stenotrophomonas maltophilia IMET 10402. The assay is described as follows: Agar diffusion test. To be noted: concentration 100 μg/ml.
In assay [29] the test system is Pseudomonas aeruginosa Oxa6 (plasmid-coded β-lactamase). To be noted: concentration 100 μg/ml; P. aeruginosa OXA 6.
Assay [30] deals with Pseudomonas aeruginosa KW 799 WT (wild type). The assay is described as follows: Agar diffusion test. To be noted: concentration 100 μg/ml; P. aeruginosa KW799/WT.
Assay [31] deals with Klebsiella pneumoniae SG 117. Briefly: Agar diffusion test. The conditions noted are these: concentration 100 μg/ml.
The subject of assay [32] is E. coli AB2847 tonB+.
Assay [33] relates to Pseudomonas aeruginosa KW 799/61. The assay is described as follows: Microdilution test (MIC). The essentials: as §2
Assay [34] deals with Pseudomonas aeruginosa KW 799 WT. The assay is described as follows: Microdilution test (MIC). The conditions noted are these: P. aeruginosa KW 799/WT. The essentials: as §2
Assay [35] deals with E. coli DC2 (penetration mutant). To be noted: concentration 100 μg/ml.
In assay [36] the test system is Pseudomonas aeruginosa NCTC 10701. The assay is described as follows: Agar diffusion test. The conditions noted are these: concentration 100 μg/ml; P. aeruginosa NCTC 10701.
Assay [37] has as its system E. coli mutant BR185 tonB−.
For assay [38], the system named is Pseudomonas aeruginosa ATCC 9027 (wild type). Briefly: Agar diffusion test. To be noted: concentration 100 μg/ml; P. aeruginosa ATCC 9027.
Assay [39] relates to Salmonella gallinarum ATCC 9184. Briefly: microbe, parasite or virus in culture. To be noted: Salmonella gallinarum ATCC9184. The method, then:
as §4

Assay [40] deals with Stenotrophomonas maltophilia GN 12873. Briefly: Agar diffusion test. The conditions noted are these: concentration 100 μg/ml.
Assay [41] has as its system E. coli mutant PLB3268 ompF++. To be noted: E. coli mutant PLB3268 ompF++ (ompF super-expressed).
From the text: as §3
PLB268: ompF- was super-expressed.

In the case of `O=C(O)c1ccc(O)c(N=Cc2cccc(O)c2O)c1` [Substance 3], the “Growth areas of siderophore indicator strains (diameter)” value (“Growth areas” below) in assay [1] is 20 mm; in assay [2], 18 mm; in [3] it was 0 mm; in assay [4], 0 mm; in [5], 28 mm; in [6] it was 32 mm. Moreover, the “Growth areas” value in [7] is recorded as 18 mm; in assay [8], 0 mm; in [9], 22 mm; in assay [10], 0 mm; in assay [11] it was 0 mm.
As to `O=C(O)c1ccc(N=Cc2cccc(O)c2O)c(O)c1` [Substance 5], the “Growth areas” value in assay [1] is 21 mm; in assay [2], 19 mm; in [3], 0 mm; in assay [4], 0 mm; in [5] it was 0 mm; in [6], 0 mm. The “Growth areas” value in assay [7] worked out at 21 mm; in assay [8], 0 mm; in assay [9], 15 mm; in assay [10], 0 mm; in assay [11], 0 mm.
`CC(=O)Oc1cccc(C(=O)N[C@@H](C)C(=O)N[C@@H](C(=O)N[C@@H]2C(=O)N3[C@@H]2SC(C)(C)[C@@H]3C(=O)O)c2ccccc2)c1OC(C)=O` [Substance 27, N-[L-2-(2,3-Diacetoxybenzoylamino)-propionyl]-ampicillin]: the “inhibition spot diameter in the agar diffusion test” value stood at 10 mm in assay [12]; 16 mm in assay [13]; 22 mm in assay [14]; 24 mm in [15]; 37 mm in assay [19]; 21 mm in assay [20]. The “inhibition spot diameter in the agar diffusion test” value in assay [28] was found to be 29 mm; in assay [29], 12 mm; in assay [30] it was 30 mm; in assay [31], 17 mm; in assay [35], 30 mm; in [36] it was 0 mm. Besides, the entries for the “inhibition spot diameter in the agar diffusion test” value in assay [38] and in assay [40] were 19 mm and 22 mm, respectively. The “MIC values, microdilution test” value in assay [16] was found to be 0.4 µg/mL (≈ 0.624 µM); in [21], 0.4 µg/mL (≈ 0.624 µM); in assay [22], 3.12 µg/mL (≈ 4.87 µM); in assay [23], 50 µg/mL (≈ 78 µM); in [24] it was 50 µg/mL (≈ 78 µM); in assay [25] it was 6.25 µg/mL (≈ 9.76 µM). Also, the “MIC values, microdilution test” value in assay [26] amounted to 6.25 µg/mL (≈ 9.76 µM); in assay [27], 0.4 µg/mL (≈ 0.624 µM); in [33], 0.2 µg/mL (≈ 0.312 µM); in assay [34], 0.78 µg/mL (≈ 1.22 µM); in [39], 1.56 µg/mL (≈ 2.43 µM). The “inhibition spot diameter in agar diffusion test” value is listed as 7.5 mm in assay [17]; 8.5 mm in [18]; 7 mm in assay [32]; 1 mm in assay [37]; 14 mm in assay [41].
In the case of `CC(=O)Oc1cccc(C(=O)Nc2ccccc2C(=O)N[C@@H](C(=O)N[C@@H]2C(=O)N3[C@@H]2SC(C)(C)[C@@H]3C(=O)O)c2ccccc2)c1OC(C)=O` [Substance 28, N-[2-(2,3-Diacetoxybenzoylamino)-benzoyl]-ampicillin], the “inhibition spot diameter in the agar diffusion test” value in assay [12] was 18 mm; in [13], 17 mm; in [14], 20 mm; in [19] it was 31 mm; in assay [20], 23 mm; in [28], 24 mm. The “inhibition spot diameter in the agar diffusion test” value in [29] is listed as 19 mm; in assay [30] it was 27 mm; in [31], 17 mm; in [35] it was 27 mm; in [38] it was 18 mm; in assay [40], 20 mm. Moreover, the “MIC values, microdilution test” value was found to be 0.4 µg/mL (≈ 0.581 µM) in [16]; 0.78 µg/mL (≈ 1.13 µM) in assay [21]; 1.56 µg/mL (≈ 2.27 µM) in [22]; 25 µg/mL (≈ 36.3 µM) in [23]; 6.25 µg/mL (≈ 9.07 µM) in assay [24]; 0.4 µg/mL (≈ 0.581 µM) in assay [33]. Also, the “MIC values, microdilution test” value in assay [34] and in [39] was 1.56 µg/mL (≈ 2.27 µM) in each case. The “inhibition spot diameter in agar diffusion test” value is reported as 11 mm in [17]; 11.5 mm in [18]; 8.5 mm in [32]; 0 mm in [37]; 13 mm in assay [41].

The values above are taken from US6380181B1, “Synthetic catechol derivatives, method for production and use thereof” (priority 1996, dated 2002).
